Here are results for one molecule from publication PMC5799307, “Creation of a long-acting nanoformulated dolutegravir” (Nature Communications, 2018).

A value given as a limit tells only on which side of the number the result lay.

The data set in a line: Pharmacokinetics and biodistribution in Balb/cJ mice, single IM dose. Particulars: male, mouse, in vivo. How it is done: Male Balb/cJ mice (6–8 weeks of age; Jackson Labs, Bar Harbor, ME) were injected with NDTG or NMDTG (45 mg/kg DTG-eq.) intramuscularly (IM; caudal thigh muscle) in a volume of 40 µL/25 g mouse. For injections, NDTG and NMDTG were diluted to 28.1 mg DTG/mL in endotoxin-free water and 42.3 mg MDTG/mL in HEPES buffer, respectively. Twenty-five microliters of whole blood was collected by cheek puncture into 1 mL ACN at 1, 3, 7, 14, 21, 28, 35, 42, 49, and 56 days after drug administration. Animals were humanely euthanized using isoflurane followed by cervical dislocation at 28 and 56 days, and tissues (spleen, liver, lymph nodes, lungs, kidneys, gut-associated lymphoid tissue (GALT), and brain) were collected for drug quantitation. Drug concentration in whole blood and tissues was determined by UPLC-MS/MS using a Waters Acquity UPLC- Xevo TQ-S micro mass spectrometry system (Milford, MA). For blood analysis, 10 µL of internal standard (IS) solution was added to each sample. […] MDTG was quantified using a 7-min gradient of the same mobile phases at a flow rate of 0.35 mL/min. […] DTG and MDTG were detected at cone voltages of 10 V and 16 V and collision energies of 25 V and 44 V, respectively. […] Spectra were analyzed and quantified by MassLynx software version 4.1. Quantitation was based upon drug peak area to internal standard peak area ratios.

Regarding `CCCCCCCCCCCCCC(=O)Oc1c2n(cc(C(=O)NCc3ccc(F)cc3F)c1=O)C[C@@H]1OCC[C@@H](C)N1C2=O` [MDTG], the “time prodrug was detectable in blood” value was no more than 3 days.
